Experimental data from patent publication US8513251B2, “Pyridazinone compounds” (Takeda Pharmaceutical Company Limited, priority 2009, dated 2013).

**Q.** Which melting point does the source give for `Cc1ccc(-n2nccc2-c2nn(-c3cccc(C(F)(F)F)c3)ccc2=O)cc1` [Example 1, 3-[1-(4-Methylphenyl)-1H-pyrazol-5-yl]-1-[3-(trifluoromethyl)phenyl]pyridazin-4(1H)-one] here?
**A.** 164 to 165 °C

**Q.** For `O=c1ccn(-c2cccc(C(F)(F)F)c2)nc1-c1ccnn1-c1ccc(F)cc1` [Example 2, 3-[1-(4-Fluorophenyl)-1H-pyrazol-5-yl]-1-[3-(trifluoromethyl)phenyl]pyridazin-4(1H)-one], which melting point is on record?
**A.** 130 to 131 °C

**Q.** Which melting point does the source give for `COc1ccc(-n2nccc2-c2nn(-c3cccc(C(F)(F)F)c3)ccc2=O)cc1` [Example 4, 3-[1-(4-Methoxyphenyl)-1H-pyrazol-5-yl]-1-[3-(trifluoromethyl)phenyl]pyridazin-4(1H)-one] here?
**A.** 173 to 174 °C

**Q.** For `Cc1cccc(-n2nccc2-c2nn(-c3cccc(C(F)(F)F)c3)ccc2=O)c1` [Example 5, 3-[1-(3-Methylphenyl)-1H-pyrazol-5-yl]-1-[3-(trifluoromethyl)phenyl]pyridazin-4(1H)-one], which melting point is on record?
**A.** 142 to 143 °C

**Q.** Which melting point does the source give for `O=c1ccn(-c2cccc(C(F)(F)F)c2)nc1-c1ccnn1-c1cccc(F)c1` [Example 6, 3-[1-(3-Fluorophenyl)-1H-pyrazol-5-yl]-1-[3-(trifluoromethyl)phenyl]pyridazin-4(1H)-one] here?
**A.** 104 to 105 °C

**Q.** Which melting point does the source give for `Cc1ccccc1-n1nccc1-c1nn(-c2cccc(C(F)(F)F)c2)ccc1=O` [Example 7, 3-[1-(2-Methylphenyl)-1H-pyrazol-5-yl]-1-[3-(trifluoromethyl)phenyl]pyridazin-4(1H)-one] here?
**A.** 126 to 127 °C

**Q.** Which melting point does the source give for `O=c1ccn(-c2cccc(C(F)(F)F)c2)nc1-c1ccnn1-c1ccccc1Cl` [Example 8, 3-[1-(2-Chlorophenyl)-1H-pyrazol-5-yl]-1-[3-(trifluoromethyl)phenyl]pyridazin-4(1H)-one] here?
**A.** 139 to 140 °C

**Q.** For `COc1ccccc1-n1nccc1-c1nn(-c2cccc(C(F)(F)F)c2)ccc1=O` [Example 9, 3-[1-(2-Methoxyphenyl)-1H-pyrazol-5-yl]-1-[3-(trifluoromethyl)phenyl]pyridazin-4(1H)-one], which melting point is on record?
**A.** 146 to 147 °C

**Q.** Which melting point does the source give for `O=c1ccn(-c2ccc(C(F)(F)F)cc2)nc1-c1ccnn1-c1ccccc1` [Example 11, 3-(1-Phenyl-1H-pyrazol-5-yl)-1-[4-(trifluoromethyl)phenyl]pyridazin-4(1H)-one] here?
**A.** 237 to 238 °C

**Q.** Which melting point does the source give for `O=c1ccn(-c2cccc(Cl)c2)nc1-c1ccnn1-c1ccccc1` [Example 12, 1-(3-Chlorophenyl)-3-(1-phenyl-1H-pyrazol-5-yl)pyridazin-4(1H)-one] here?
**A.** 146 to 147 °C

**Q.** With `COc1ccc(-n2ccc(=O)c(-c3ccnn3-c3ccccc3)n2)cc1` [Example 14, 1-(4-Methoxyphenyl)-3-(1-phenyl-1H-pyrazol-5-yl)pyridazin-4(1H)-one] as the compound, how does the melting point read?
**A.** 179 to 180 °C

**Q.** With `O=c1ccn(-c2ccc(Cl)cc2)nc1-c1ccnn1-c1ccccc1` [Example 18, 1-(4-Chlorophenyl)-3-(1-phenyl-1H-pyrazol-5-yl)pyridazin-4(1H)-one] as the compound, how does the melting point read?
**A.** 219 to 220 °C

**Q.** For `Cc1ccccc1-n1ccc(=O)c(-c2ccnn2-c2ccccc2)n1` [Example 19, 1-(2-Methylphenyl)-3-(1-phenyl-1H-pyrazol-5-yl)pyridazin-4(1H)-one], which melting point is on record?
**A.** 120 to 121 °C

**Q.** With `Cc1cccc(-n2ccc(=O)c(-c3ccnn3-c3ccccc3)n2)c1` [Example 20, 1-(3-Methylphenyl)-3-(1-phenyl-1H-pyrazol-5-yl)pyridazin-4(1H)-one] as the compound, how does the melting point read?
**A.** 115 to 116 °C

**Q.** With `COc1cccc(-n2ccc(=O)c(-c3ccnn3-c3ccccc3)n2)c1` [Example 21, 1-(3-Methoxyphenyl)-3-(1-phenyl-1H-pyrazol-5-yl)pyridazin-4(1H)-one] as the compound, how does the melting point read?
**A.** 110 to 111 °C

**Q.** For `O=c1ccn(-c2ccccc2C(F)(F)F)nc1-c1ccnn1-c1ccccc1` [Example 22, 3-(1-Phenyl-1H-pyrazol-5-yl)-1-[2-(trifluoromethyl)phenyl]pyridazin-4(1H)-one], which melting point is on record?
**A.** 145 to 146 °C

**Q.** For `O=c1ccn(-c2ccccc2)nc1-c1ccnn1-c1ccccc1` [Example 24, 1-Phenyl-3-(1-phenyl-1H-pyrazol-5-yl)pyridazin-4(1H)-one], which melting point is on record?
**A.** 179 to 180 °C

**Q.** Which melting point does the source give for `Cc1ccc(-n2ccc(=O)c(-c3ccnn3-c3ccccc3)n2)cc1` [Example 25, 1-(4-Methylphenyl)-3-(1-phenyl-1H-pyrazol-5-yl)pyridazin-4(1H)-one] here?
**A.** 182 to 183 °C

**Q.** With `O=c1ccn(-c2cccc(OC(F)F)c2)nc1-c1ccnn1-c1ccccc1` [Example 27, 1-[3-(Difluoromethoxy)phenyl]-3-(1-phenyl-1H-pyrazol-5-yl)pyridazin-4(1H)-one] as the compound, how does the melting point read?
**A.** 159 to 160 °C

**Q.** For `O=c1ccn(-c2ccc(OC(F)F)cc2)nc1-c1ccnn1-c1ccccc1` [Example 28, 1-[4-(Difluoromethoxy)phenyl]-3-(1-phenyl-1H-pyrazol-5-yl)pyridazin-4(1H)-one], which melting point is on record?
**A.** 175 to 176 °C

**Q.** Which melting point does the source give for `O=c1ccn(-c2ccccc2N2CCOCC2)nc1-c1ccnn1-c1ccccc1` [Example 29, 1-(2-Morpholin-4-ylphenyl)-3-(1-phenyl-1H-pyrazol-5-yl)pyridazin-4(1H)-one] here?
**A.** 200 to 201 °C

**Q.** For `O=c1ccn(-c2cccc(C(F)(F)F)c2)nc1-c1nncn1-c1ccccc1` [Example 40, 3-(4-Phenyl-4H-1,2,4-triazol-3-yl)-1-[3-(trifluoromethyl)phenyl]pyridazin-4(1H)-one], which melting point is on record?
**A.** 103 to 104 °C

**Q.** Which melting point does the source give for `Cc1nnc(-c2nn(-c3cccc(C(F)(F)F)c3)ccc2=O)n1-c1ccccc1` [Example 41, 3-(5-Methyl-4-phenyl-4H-1,2,4-triazol-3-yl)-1-[3-(trifluoromethyl)phenyl]pyridazin-4(1H)-one] here?
**A.** 191 to 192 °C

**Q.** Which melting point does the source give for `Cc1cn(-c2cccc(C(F)(F)F)c2)nc(-c2ccnn2-c2ccccc2)c1=O` [Example 50, 5-Methyl-3-(1-phenyl-1H-pyrazol-5-yl)-1-[3-(trifluoromethyl)phenyl]pyridazin-4(1H)-one] here?
**A.** 147 to 150 °C

**Q.** For `Cc1cc(-c2nn(-c3cccc(C(F)(F)F)c3)ccc2=O)n(-c2ccccc2)n1` [Example 51, 3-(3-Methyl-1-phenyl-1H-pyrazol-5-yl)-1-[3-(trifluoromethyl)phenyl]pyridazin-4(1H)-one], which melting point is on record?
**A.** 167 to 168 °C

**Q.** Which melting point does the source give for `COc1cn(-c2ccc(I)cc2F)nc(-c2ccnn2-c2ccccc2)c1=O` [Example 55, 1-(2-Fluoro-4-iodophenyl)-5-methoxy-3-(1-phenyl-1H-pyrazol-5-yl)pyridazin-4(1H)-one] here?
**A.** 194 to 196 °C

**Q.** Which melting point does the source give for `COc1cn(-c2ccc(C(F)(F)F)cc2F)nc(-c2ccnn2-c2ccccc2)c1=O` [Example 56, 1-[2-Fluoro-4-(trifluoromethyl)phenyl]-5-methoxy-3-(1-phenyl-1H-pyrazol-5-yl)pyridazin-4(1H)-one] here?
**A.** 169 to 171 °C

**Q.** For `O=c1c(O)cn(-c2cccc(C(F)(F)F)c2)nc1-c1ccnn1-c1ccccc1` [Example 58, 5-Hydroxy-3-(1-phenyl-1H-pyrazol-5-yl)-1-[3-(trifluoromethyl)phenyl]pyridazin-4(1H)-one], which melting point is on record?
**A.** 246 to 248 °C

**Q.** Which melting point does the source give for `CC(C)Oc1cn(-c2cccc(C(F)(F)F)c2)nc(-c2ccnn2-c2ccccc2)c1=O` [Example 60, 5-(1-Methylethoxy)-3-(1-phenyl-1H-pyrazol-5-yl)-1-[3-(trifluoromethyl)phenyl]pyridazin-4(1H)-one] here?
**A.** 137 to 139 °C
